Assay results published in PubChem BioAssay AID1845205 (Molecular Pharmacology Branch, DTP, NCI, 2023).
Where “and” joins values, the source holds several entries; their conditions need not be identical. Identical values can stand only once. One block for each compound: values may come before it. Calls of active or inactive are those of the source. Rule for the calls: active = viability on the fitted dose curve at most 10% of control; inactive = the rest.

Test system: MPNST multicellular tumor spheroids, viability % test/control
Assay: Anticancer human tumor MPNST cell line growth inhibition;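 for IC50: spheroids exposed to agents for seven days after three days of growth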;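 for viability, T/C: luminescence signal used as surrogate for viable cell amount; spheroids exposed to agents for seven days after three days of growth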
Conditions: for viability, T/C: stronger effect = lower value
Excerpt: Multicellular complex tumor spheroid response to DNA repair inhibitors in combination with DNA-damaging drugs
This study explores the anticancer activities of DNA-damaging drugs and inhibitors of DNA damage repair, both as single agents and in combinations. Complex tumor spheroids comprised of malignant cells, endothelial cells and mesenchymal stem cells served as an in vitro model for human solid tumors. This model system incorporates physiologically relevant features and patient-derived or established malignant cell lines with clinically relevant genetic alterations from many tumor types. Twenty-six patient-derived or established malignant cell lines were evaluated representing sarcoma, melanoma, small cell lung cancer (SCLC), non-small cell lung cancer (NSCLC), as well as bladder, ovarian and pancreatic cancers. The concentration ranges selected for each drug and investigational agent were based upon clinically achievable concentrations if the clinical Cmax of the agent was known.
Compounds. The drugs and compounds olaparib (NSC753686), talazoparib (NSC767125), berzosertib (NSC777718), elimusertib (NSC800525), nedisertib (NSC802822), VX-984 (NSC792969), AZD-1390 (NSC803789), temozolomide (NSC362856), topotecan (NSC609699), trabectedin (NSC813783), staurosporine (NSC755774), and gemcitabine (NSC613327) were obtained from the National Cancer Institute (NCI) Developmental Therapeutics Program Chemical Repository. The FDA-approved anticancer drug set is available from the Developmental Therapeutics Program at https://dtp.cancer.gov/organization/dscb/obtaining/available_plates.htm. […] The stock solutions were prepared in dimethyl sulfoxide (DMSO, Sigma-Aldrich, St. Louis, MO, cat. D2650) at 400-fold the tested concentration and stored at -70 degrees C. Prior to their use, the stock solutions were diluted in fresh medium and the final DMSO concentration in the assay was 0.25% (v/v). All drugs and investigational agents were tested over a range starting from a high concentration at or near the clinical Cmax and decreasing in half-log increments. If the clinical Cmax for an agent had not been determined, the highest concentration tested was 10 microM.
Cell Lines. The patient-derived cancer cell (PDC) lines: 156681-154-R-J1-PDC, 283228-195-R-J1-PDC, 287954-098-R-J1-PDC, 292921-168-R-J2-PDC, 349418-098-R-PDC, 425362-245-T-J1-PDC, 556581-035-R-J1-PDC, and BL0293-F563-PDC were received from the NCI Patient-Derived Models Repository (PDMR, https://pdmr.cancer.gov). The established cell lines HS-SY-2 (RRID:CVCL_8719), MPNST, and SYO-1 (RRID:CVCL_7146) were obtained from the Sloan Kettering Institute. The alveolar soft parts sarcoma cell line ASPS-1 (RRID:CVCL_S738) was established at the NCI and grown from internal seed stocks. The following established cell lines were purchased from the American Type Culture Collection (ATCC, Manassas, VA): G-401 (ATCC, cat. CRL-1441, RRID:CVCL_0270), SW982 (ATCC, cat. HTB-93, RRID:CVCL_1734), VA-ES-BJ (ATCC, cat. CRL-2138, RRID:CVCL_1785), NCI-H719 (ATCC, cat. CRL-5837, RRID:CVCL_1582), NCI-H196 (ATCC, cat. CRL-5823, RRID:CVCL_1509), NCI-H841 (ATCC, cat. CRL-5845, RRID:CVCL_1595), NCI-H1618 (ATCC, cat. CRL-5879, RRID:CVCL_1480), NCI-H1876 (ATCC, cat. CRL-5902, RRID:CVCL_1503), DMS 114 (ATCC, cat. CRL-2066; RRID:CVCL_1174), NCI-H211 (ATCC, cat. CRL-5824; RRID:CVCL_1529), and SW 1271 (ATCC, cat. CRL-2177, RRID:CVCL_1716). The small cell lung cancer cell line COR-L88 was purchased from Sigma-Aldrich (cat. 92031917-1VL, RRID:CVCL_1141). The non-small cell lung cancer cell lines NCI-H226 (RRID:CVCL_1544) and NCI-H322M (RRID:CVCL_1557) were established at the NCI and grown from internal seed stocks. Pooled donor human umbilical vein endothelial cells (HUVEC, Lonza, cat. CC-2519) and human mesenchymal stem cells (hMSC, Lonza, cat. PT-2501) were purchased from Lonza (Walkersville, MD).
Cell Culture. All cells were maintained in an incubator at 37 degrees C and 5% CO2 with 95% humidity. […]

[1] = curve of first compound, second compound 1 µM
[2] = curve of first compound, second compound 3.16 µM
[3] = curve of first compound, second compound 10 µM
[4] = curve of first compound, second compound 31.6 µM
[5] = curve of first compound, second compound 100 µM

SMILES: Cc1sc2c(c1C)C(c1ccc(Cl)cc1)=NC(CC(=O)Nc1ccc(O)cc1)c1nnc(C)n1-2 (stereo not drawn) + Cn1nnc2c(C(N)=O)ncn2c1=O
IC50 [1]: 1440 nM
IC50 [2]: 813 nM
IC50 [3]: 1790 nM
IC50 [4]: > 3000 nM
IC50 [5]: 678 nM
viability, T/C (second compound 1 µM, first compound 0.00949 µM): 123%
viability, T/C (second compound 1 µM, first compound 0.03 µM): 97.7%
viability, T/C (second compound 1 µM, first compound 0.0949 µM): 78.7%
viability, T/C (second compound 1 µM, first compound 0.3 µM): 60.5%
viability, T/C (second compound 1 µM, first compound 0.949 µM): 51.3%
viability, T/C (second compound 1 µM, first compound 3 µM): 47.3%
viability, T/C (second compound 3.16 µM, first compound 0.00949 µM): 96.7%
viability, T/C (second compound 3.16 µM, first compound 0.03 µM): 125%
viability, T/C (second compound 3.16 µM, first compound 0.0949 µM): 92.4%
viability, T/C (second compound 3.16 µM, first compound 0.3 µM): 60.4%
viability, T/C (second compound 3.16 µM, first compound 0.949 µM): 49.7%
viability, T/C (second compound 3.16 µM, first compound 3 µM): 45.8%
viability, T/C (second compound 10 µM, first compound 0.00949 µM): 102%
viability, T/C (second compound 10 µM, first compound 0.03 µM): 123%
viability, T/C (second compound 10 µM, first compound 0.0949 µM): 93.8%
viability, T/C (second compound 10 µM, first compound 0.3 µM): 62.7%
viability, T/C (second compound 10 µM, first compound 0.949 µM): 50.7%
viability, T/C (second compound 10 µM, first compound 3 µM): 48.5%
viability, T/C (second compound 31.6 µM, first compound 0.00949 µM): 95.6%
viability, T/C (second compound 31.6 µM, first compound 0.03 µM): 108%
viability, T/C (second compound 31.6 µM, first compound 0.0949 µM): 91.7%
viability, T/C (second compound 31.6 µM, first compound 0.3 µM): 60%
viability, T/C (second compound 31.6 µM, first compound 0.949 µM): 50%
viability, T/C (second compound 31.6 µM, first compound 3 µM): 51.4%
viability, T/C (second compound 100 µM, first compound 0.00949 µM): 91.5%
viability, T/C (second compound 100 µM, first compound 0.03 µM): 87%
viability, T/C (second compound 100 µM, first compound 0.0949 µM): 83.2%
viability, T/C (second compound 100 µM, first compound 0.3 µM): 58.6%
viability, T/C (second compound 100 µM, first compound 0.949 µM): 47.3%
viability, T/C (second compound 100 µM, first compound 3 µM): 43.7%

SMILES: COc1ccc([C@@H](O)c2cc(-c3ncnc4cc(N5CCOCC5)ccc34)c(F)cc2Cl)nn1
viability, T/C (compound 0.0316 µM): 33.1% and 109% and 92.9%
viability, T/C (compound 0.1 µM): 26% and 94% and 75.6%
viability, T/C (compound 0.316 µM): 21.6% and 87.5% and 78.7%
outcome (compound 1 µM): inactive
viability, T/C (compound 1 µM): 14.7% and 50.9%

SMILES: COc1ccc([C@@H](O)c2cc(-c3ncnc4cc(N5CCOCC5)ccc34)c(F)cc2Cl)nn1 + Cn1nnc2c(C(N)=O)ncn2c1=O
IC50 [1]: 1650 nM
IC50 [2]: 1510 nM
IC50 [3]: 1820 nM
IC50 [4]: 2070 nM
IC50 [5]: 1580 nM
viability, T/C (second compound 1 µM, first compound 0.0316 µM): 93.3%
viability, T/C (second compound 1 µM, first compound 0.1 µM): 90.2%
viability, T/C (second compound 1 µM, first compound 0.316 µM): 73.2%
viability, T/C (second compound 1 µM, first compound 1 µM): 59%
viability, T/C (second compound 1 µM, first compound 3.16 µM): 39.5%
viability, T/C (second compound 1 µM, first compound 10 µM): 23%
viability, T/C (second compound 3.16 µM, first compound 0.0316 µM): 76.4%
viability, T/C (second compound 3.16 µM, first compound 0.1 µM): 99.1%
viability, T/C (second compound 3.16 µM, first compound 0.316 µM): 80%
viability, T/C (second compound 3.16 µM, first compound 1 µM): 57.7%
viability, T/C (second compound 3.16 µM, first compound 3.16 µM): 35.9%
viability, T/C (second compound 3.16 µM, first compound 10 µM): 23.4%
viability, T/C (second compound 10 µM, first compound 0.0316 µM): 86.8%
viability, T/C (second compound 10 µM, first compound 0.1 µM): 74.9%
viability, T/C (second compound 10 µM, first compound 0.316 µM): 73%
viability, T/C (second compound 10 µM, first compound 1 µM): 65.5%
viability, T/C (second compound 10 µM, first compound 3.16 µM): 36.6%
viability, T/C (second compound 10 µM, first compound 10 µM): 24.2%
viability, T/C (second compound 31.6 µM, first compound 0.0316 µM): 81.2%
viability, T/C (second compound 31.6 µM, first compound 0.1 µM): 72.8%
viability, T/C (second compound 31.6 µM, first compound 0.316 µM): 75.2%
viability, T/C (second compound 31.6 µM, first compound 1 µM): 66.5%
viability, T/C (second compound 31.6 µM, first compound 3.16 µM): 40.4%
viability, T/C (second compound 31.6 µM, first compound 10 µM): 26.4%
viability, T/C (second compound 100 µM, first compound 0.0316 µM): 76.3%
viability, T/C (second compound 100 µM, first compound 0.1 µM): 90.8%
viability, T/C (second compound 100 µM, first compound 0.316 µM): 68.4%
viability, T/C (second compound 100 µM, first compound 1 µM): 57.7%
viability, T/C (second compound 100 µM, first compound 3.16 µM): 39.7%
viability, T/C (second compound 100 µM, first compound 10 µM): 25.6%

IC50 (compound alone, run of 12/16/2019): 28.5 nM [middle of 5 runs]
SMILES: CC[C@@]1(O)C(=O)OCc2c1cc1n(c2=O)Cc2cc3c(CN(C)C)c(O)ccc3nc2-1
viability, T/C (compound 0.03 µM): 53% [middle of 10 runs]
viability, T/C (compound 0.3 µM): 41.1% [middle of 10 runs]
